Assay results: patent US20250257034A1, “INDOLE DERIVATIVES AS SEROTONERGIC AGENTS USEFUL FOR THE TREATMENT OF DISORDERS RELATED THERETO” (priority 2023, published 2025)
“And” between values parts separate entries of the source, which are not always exact repeats. Equal entries are not always repeated.

Legend:
Format in all cases: in vitro ADME
[1] = Human liver microsomes stability; conditions: for CLint (μL/min/mg protein) / t1/2: 2 μM compound
Experimental: (§1) The objective of this study was to estimate in vitro metabolic stability of exemplary compounds of Formula (I) or a pharmaceutically acceptable salt, solvate, and/or prodrug thereof in pooled human, male rat, and male mouse liver microsomes. The concentrations of compounds in reaction systems were evaluated by LC-MS/MS for estimating the stability in pooled human, male rat, and male mouse liver microsomes. The in vitro intrinsic clearances of test compounds were determined as well.
(§2) A master solution in the “Incubation Plate” containing phosphate buffer, ultra-pure H2O, MgCl2 solution and liver microsomes was made according to Table 33. The mixture was pre-warmed at 37° C. water bath for 5 minutes.
(§3) 40 μL of 10 mM nicotinamide adenine dinucleotide phosphate (NADPH) solution was added to each well. The final concentration of NADPH was 1 mM. The negative control samples were prepared by replacing NADPH with 40 μL of ultra-pure H2O. Samples were prepared in duplicate. Negative controls were prepared in singlet.
(§4) The reaction was started with the addition of 4 μL of 200 μM exemplary test compounds of the disclosure or control compounds to each master solution to get the final concentration of 2 μM. This study was performed in duplicate.
(§5) Aliquots of 50 μL were taken from the reaction solution at 0, 15, 30, 45, and 60 minutes. The reaction solutions were stopped by the addition of 4 volumes of cold methanol with IS (100 nM alprazolam, 200 nM imipramine, 200 nM labet alol and 2 μM ketoprofen). Samples were centrifuged at 3,220 g for 40 minutes. Aliquot of 90 μL of the supernatant was mixed with 90 μL of ultra-pure H2O and then was used for LC-MS/MS analysis.
(§6) LC/MS analysis was performed for all samples from this study using a Shimadzu liquid chromatograph separation system equipped with degasser DGU-20A5R; solvent delivery unit LC-30AD; system controller SIL-30AC; column oven CTO-30A; CTC Analytics HTC PAL System. Mass spectrometric analysis was performed using a Triple Quad™ 5500 instrument.
(§7) All calculations were carried out using Microsoft Excel. Peak area ratios of test compound to internal standard (listed in the below table) were determined from extracted ion chromatograms.
(§8) All calculations were carried out using Microsoft Excel. Peak areas were determined from extracted ion chromatograms. The slope value, k, was determined by linear regression of the natural logarithm of the remaining percentage of the parent drug vs. incubation time curve.
(§9) The in vitro half-life (in vitro t1/2) was determined from the slope value:
(§10) Conversion of the in vitro t1/2(min) into the in vitro intrinsic clearance (in vitro CLint, in μL/min/mg proteins) was done using the following equation (mean of duplicate determinations): […]
(§11) A master solution in the “Incubation Plate” containing phosphate buffer, ultra-pure H2O, MgCl2 solution and liver microsomes was made according to Table 63. The mixture was pre-warmed at 37° C. water bath for 5 minutes.
(§12) 40 μL of 10 mM NADPH solution was added to each well. The final concentration of NADPH was 1 mM. The negative control samples were prepared by replacing NADPH with 40 μL of ultra-pure H2O. Samples were prepared in duplicate. Negative controls were prepared in singlet.
(§13) Conversion of the in vitro t1/2(min) into the in vitro intrinsic clearance (in vitro C Lt, in μL/min/mg proteins) was done using the following equation (mean of duplicate determinations): […]

[2] = Rat liver microsomes stability; conditions: for CLint (μL/min/mg protein) / t1/2 / half-life at 2 μM / microsomal CLint at 2 μM: 2 μM compound; for half-life at 2 μM / microsomal CLint at 2 μM: male, rat; for microsomal CLint at 2 μM: read-out: CLint (μL/min/mg protein)
Experimental: as §1, §2, §3, §4, §5, §6, §7, §8, §9, §10, §11, §12, §13

[3] = Mouse liver microsomes stability; conditions: for microsomal CLint at 2 μM: mouse, read-out: CLint (μL/min/mg protein)
Experimental: as §1, §2, §3, §4, §5, §6, §7, §8, §9, §10, §11, §12, §13

[4] = human liver microsomes, 0.5 mg/mL
[5] = human liver microsomes, With Cofactors, 0 min
[6] = human liver microsomes, With Cofactors, 30 min
[7] = human liver microsomes, With Cofactors, 60 min
[8] = human liver microsomes, Without Cofactors, 0 min
[9] = human liver microsomes, Without Cofactors, 30 min
[10] = human liver microsomes, Without Cofactors, 60 min
[11] = Rat liver microsomes, 0.5 mg/mL microsomes, 1 mM NADPH
[12] = Rat liver microsomes, 0.5 mg/mL microsomes, 1 mM NADPH, 37° C
[13] = rat liver microsomes, 0.5 mg/mL
[14] = rat liver microsomes, With Cofactors, 0 min
[15] = rat liver microsomes, With Cofactors, 30 min
[16] = rat liver microsomes, With Cofactors, 60 min
[17] = rat liver microsomes, Without Cofactors, 0 min
[18] = rat liver microsomes, Without Cofactors, 30 min
[19] = rat liver microsomes, Without Cofactors, 60 min
[20] = mouse liver microsomes, 2 μM compound, 0.5 mg/mL
[21] = mouse liver microsomes, With Cofactors, 0 min
[22] = mouse liver microsomes, With Cofactors, 30 min
[23] = mouse liver microsomes, With Cofactors, 60 min
[24] = mouse liver microsomes, Without Cofactors, 0 min
[25] = mouse liver microsomes, Without Cofactors, 30 min
[26] = mouse liver microsomes, Without Cofactors, 60 min
[27] = pooled liver microsomes, rat liver microsomes, 0.5 mg/mL

COc1ccc2[nH]cc(CCN(C)C)c2c1 [Compound 5-MeO-DMT]
Predicted hepatic CL ([1]; Human liver microsomes): 18.09 mL/min/kg
Scaled-up CLint ([1]; Human liver microsomes): 143.22 mL/min/kg
CLint (μL/min/mg protein) ([1]; Human liver microsomes, 0.5 mg/mL microsomes, 1 mM NADPH): 114.19 μL/min/mg protein
t1/2 ([1]; Human liver microsomes, 0.5 mg/mL microsomes, 1 mM NADPH, 37° C): 12.14 min
Predicted hepatic CL ([1]; human liver microsomes): 18.09 mL/min/kg
Scaled-up CLint ([1]; human liver microsomes): 143.22 mL/min/kg
CLint (μL/min/mg protein) [1, 4]: 114.19 μL/min/mg protein
t1/2 [1, 4]: 12.14 min
Remaining Percentage (%) [1, 5]: 100.00%
Remaining Percentage (%) [1, 6]: 19.24%
Remaining Percentage (%) [1, 7]: 3.25%
Remaining Percentage (%) [1, 8]: 100.00%
Remaining Percentage (%) [1, 9]: 18.58%
Remaining Percentage (%) [1, 10]: 3.00%
Predicted hepatic CL ([2]; Rat liver microsomes): 49.02 mL/min/kg
Scaled-up CLint ([2]; Rat liver microsomes): 437.56 mL/min/kg
CLint (μL/min/mg protein) [2, 11]: 244.17 μL/min/mg protein
t1/2 [2, 12]: 5.68 min
Predicted hepatic CL ([2]; rat liver microsomes): 49.02 mL/min/kg
Scaled-up CLint ([2]; rat liver microsomes): 437.56 mL/min/kg
CLint (μL/min/mg protein) [2, 13]: 244.17 μL/min/mg protein
t1/2 [2, 13]: 5.68 min
Remaining Percentage (%) [2, 14]: 100.00%
Remaining Percentage (%) [2, 15]: 2.57%
Remaining Percentage (%) [2, 16]: 0.36%
Remaining Percentage (%) [2, 17]: 100.00%
Remaining Percentage (%) [2, 18]: 49.55%
Remaining Percentage (%) [2, 19]: 23.82%
Predicted hepatic CL ([3]; Mouse liver microsomes): 54.19 mL/min/kg
Scaled-up CLint ([3]; Mouse liver microsomes): 136.21 mL/min/kg
CLint (μL/min/mg protein) ([3]; Mouse liver microsomes, 2 μM compound, 0.5 mg/mL microsomes, 1 mM NADPH): 31.13 μL/min/mg protein
t1/2 ([3]; Mouse liver microsomes, 2 μM compound, 0.5 mg/mL microsomes, 1 mM NADPH, 37° C): 44.52 min
Predicted hepatic CL ([3]; mouse liver microsomes): 54.19 mL/min/kg
Scaled-up CLint ([3]; mouse liver microsomes): 136.21 mL/min/kg
CLint (μL/min/mg protein) [3, 20]: 31.13 μL/min/mg protein
t1/2 [3, 20]: 44.52 min
Remaining Percentage (%) [3, 21]: 100.00%
Remaining Percentage (%) [3, 22]: 61.84%
Remaining Percentage (%) [3, 23]: 39.30%
Remaining Percentage (%) [3, 24]: 100.00%
Remaining Percentage (%) [3, 25]: 104.76%
Remaining Percentage (%) [3, 26]: 95.24%

O=C(O)Cc1ccccc1Nc1c(Cl)cccc1Cl [Diclofenac]
Predicted hepatic CL ([1]; Human liver microsomes): 18.38 mL/min/kg and 18.35 mL/min/kg
Predicted hepatic CL ([1]; human liver microsomes): 18.44 mL/min/kg and 18.35 mL/min/kg
Remaining Percentage (%) [1, 5]: 100.00%
Remaining Percentage (%) [1, 6]: 5.01%
Remaining Percentage (%) [1, 7]: 1.77%
Remaining Percentage (%) [1, 8]: 100.00%
Remaining Percentage (%) [1, 9]: 112.67%
Remaining Percentage (%) [1, 10]: 96.67%
Predicted hepatic CL ([2]; Rat liver microsomes): 41.22 mL/min/kg and 41.25 mL/min/kg
CLint (μL/min/mg protein) [2, 11]: 91.05 μL/min/mg protein
t1/2 [2, 12]: 15.22 min
half-life at 2 μM ([2]; liver microsomes, Rat liver microsomes, 0.5 mg/mL microsomes, 1 mM NADPH, 37° C): 15.3 min
microsomal CLint at 2 μM ([2]; liver microsomes, Rat liver microsomes, 0.5 mg/mL microsomes, 1 mM NADPH): 90.8 µL/min/mg
half-life at 2 μM [2, 27]: 15.1 min
microsomal CLint at 2 μM [2, 27]: 91.9 µL/min/mg
Predicted hepatic CL ([2]; rat liver microsomes): 41.34 mL/min/kg and 41.25 mL/min/kg
CLint (μL/min/mg protein) [2, 13]: 91.05 μL/min/mg protein
t1/2 [2, 13]: 15.22 min
Remaining Percentage (%) [2, 14]: 100.00%
Remaining Percentage (%) [2, 15]: 11.86%
Remaining Percentage (%) [2, 16]: 6.35%
Remaining Percentage (%) [2, 17]: 100.00%
Remaining Percentage (%) [2, 18]: 102.19%
Remaining Percentage (%) [2, 19]: 100.63%
Predicted hepatic CL ([3]; Mouse liver microsomes): 54.78 mL/min/kg and 56.11 mL/min/kg
microsomal CLint at 2 μM ([3]; male, liver microsomes, Mouse liver microsomes, 2 μM compound, 0.5 mg/mL microsomes, 1 mM NADPH): 32 µL/min/mg
microsomal CLint at 2 μM ([3]; male, pooled liver microsomes, mouse liver microsomes, 2 μM compound, 0.5 mg/mL): 32 µL/min/mg
half-life at 2 μM ([3]; male, Mouse liver microsomes, 2 μM compound, 0.5 mg/mL microsomes, 1 mM NADPH, 37° C): 40.7 min
Predicted hepatic CL ([3]; mouse liver microsomes): 54.78 mL/min/kg and 57.42 mL/min/kg
Scaled-up CLint ([3]; mouse liver microsomes): 158.60 mL/min/kg
CLint (μL/min/mg protein) [3, 20]: 36.25 μL/min/mg protein
t1/2 [3, 20]: 38.23 min
Remaining Percentage (%) [3, 21]: 100.00%
Remaining Percentage (%) [3, 22]: 45.55%
Remaining Percentage (%) [3, 23]: 33.71%
Remaining Percentage (%) [3, 24]: 100.00%
Remaining Percentage (%) [3, 25]: 89.49%
Remaining Percentage (%) [3, 26]: 96.59%
